# Laboratory results reported in US11872261B2, “Lipoprotein targeting protease inhibitors and uses” (The United States of America, as represented by the …, priority 2016, dated 2024).
# Assay: Clinical pilot study: plasma lipids before and after rosuvastatin
# Type: in vivo, human
# Conditions: 28 days vs baseline
# Experimental: This Example describes a small clinical pilot study which assessed the impact of statins on lipoprotein-associated proteins in healthy individuals (n=10) with normal LDL-C (<130 mg/dL), who were treated with the statin rosuvastatin (available commercially as Crestor®) (20 mg/day) for 28 days. Proteomic analysis of size-exclusion chromatography isolated LDL, HDL-L (large) and HDL-S (small) fractions and spectral counting was used to compare relative protein detection before and after statin therapy. Significant protein changes were found in each lipoprotein pool and included both increases and decreases in several proteins involved in lipoprotein metabolism, complement regulation, and acute phase response. Fasting blood samples were obtained from ten healthy volunteers participating in a study of the NIH Center for Human Immunology, intended to evaluate effects of a statin on the immune system. This protocol was approved by the institutional review board of the National Heart, Lung, and Blood Institute (NHLBI) and registered at clinicaltrials.gov (NCT01200836); all participants provided written informed consent. Three males and seven females were enrolled, with an average age of 44.1±11 years. Participants were selected to have normal LDL-C (<130 mg/dL) and were not on any lipid modification therapy prior to the study. Recruited participants were given rosuvastatin (20 mg/day) for 28 days. Blood was collected by venipuncture at the following time points: baseline, 14 and 28 days after rosuvastatin treatment, and 14 days after stopping treatment (washout). Samples were stored at -20° C. Because samples were taken from each participant at baseline and on-treatment, each subject acted as their own control. Lipid and lipoprotein assays were performed on a Siemens Dimension Vista analyzer, using standard enzymatic assays. HDL-C was measured by a direct assay (Siemens) and LDL-C was determined by the Friedewald equation. Lipoprotein particle numbers and average particle sizes were determined from heparinized plasma on a […] Clinical Analyzer (LipoScience).
smiles,measurement,setting,value
CC(C)c1nc(N(C)S(C)(=O)=O)nc(-c2ccc(F)cc2)c1/C=C/[C@@H](O)C[C@@H](O)CC(=O)O [rosuvastatin],increase of HDL-C,"20 mg/day, not statistically significant",3.6%
same,change in LDL-C,"20 mg/day, p<0.001",−50%
same,change in triglyceride,"20 mg/day, p<0.01",−29%
same,change in total cholesterol,"healthy subjects n=10, 20 mg/day, p<0.001",−28%
